In publication PMC3596558, “Identification of the metabolites of polybrominated diphenyl ether 99 and its related cytochrome P450s^” (Journal of Biomedical Research, 2010):
Several values for one entry are separate records, joined by “and”; a condition that tells them apart may be missing. Identical values can stand only once. Entries after “also recorded” stand apart in the source; their conditions may differ.

Tests used:
primary rat hepatocytes = test: Metabolism of BDE-99 in primary rat hepatocytes, GC/MS of extracts; format: in vitro ADME; conditions: for metabolite of BDE-99 detected by GC/MS (qualitative): compared with commercial standards
Text: Primary rat hepatocytes were isolated from three individual male Sprague-Dawley CD rats (body weight 220-250 g) obtained from Laboratory Animal Center of Nanjing Medical University, using the two-step in situ collagenase perfusion method. Then the hepatocytes were purified by percoll density gradient separation and washed twice before being resuspended in the attachment medium. Cells viability exceeded 90% as determined by trypan blue exclusion. For the cell culture, the isolated hepatocytes were seeded in Type I collagen-coated 12-well plates at a density of 150, 000 cells/cm^2 in Williams' Medium E containing 5% fetal calf serum, 100 U/mL penicillin and 100 µg/mL streptomycin, and then incubated in a humidified atmosphere of 5% CO2 in air at 37°C. After 2-3 h incubation, the unattached cells were poured off and the medium was replaced with 1 mL HepatoZYME-SFM supplemented with 100 U/mL penicillin, 100 µg/mL streptomycin, 20 µg/L EGF and 20 µg/L HGF.
(§1) All the hepatocyte batches were exposed to BDE-99 at a nominal concentration of 10 µM, equivalent to 10 nM of compound per well. A stock solution of BDE-99 which was 200 times the final concentration in tissue culture medium was prepared in DMSO and stored at -20°C. Separate 12-well plates were used for the metabolism and gene expression analysis. To produce metabolites of BDE-99, the hepatocytes were treated once every 24 h for 3 days to take advantage of the increased activity of cells and potential increase in metabolite formation. The hepatocytes cultured with medium without BDE-99 were set up as controls. During medium exchange of the hepatocytes, we collected and pooled the contents from each well. After incubation, the hepatocytes were removed from the wells using 1 mL methanol to disrupt cell membranes. The contents were subsequently transferred to clean glass test tubes for extraction. For the gene expression analysis, the rat hepatocytes were exposed to 10 µM BDE-99 for 24 h. Wells treated with media containing aliquots of DMSO were set up as controls.
Hepatocytes and media were extracted using methods developed for the extraction of phenolic and neutral compounds from serum. Briefly, samples were first spiked with one internal standard, BDE-77, and extracted using methyl-tert-butyl ether/hexane:1/1(v/v). Lipids were removed from the extracts with concentrated sulfuric acid, and then the neutral and phenolic compounds were separated using a basic aqueous solution of potassium hydroxide. The phenolic fraction was derivatized with acetonitrile / methanol / water / pyrimidine: 5/2/2/1(v/v), then methyl chloroformate was added to produce methyl formate BDE congeners. After derivatization, samples were evaporated to complete dryness using a slow stream of nitrogen and reconstituted in hexane. Each human P450s assay sample was added into one internal standard BDE-77 before extraction. Proteins were denatured with 0.5 mL 6 M hydrochloric acid, and then 3 mL hexane was added for extraction. This step was repeated three times. The extraction was evaporated to complete dryness using a slow stream of nitrogen and reconstituted in 0.5 mL acetonitrile. Rates of elimination were determined by comparing the concentration of parent compound before and after the reaction.
The underivatized and derivatized extracts were analyzed using a GC/MS system (Trace DSQ ThermoFisher Scientific, USA) with electron impact (EI) ionization. Separation was performed on a DB-5MS column (30 m×0.25 mm i. d. ×0.25 µm thickness) (Agilent Technologies, Inc., USA). The inlet temperature was 260°C, and the injection was performed in pulsed splitless mode. The oven initial temperature was 110°C and was held for 1 min. The temperature was ramped to 210°C at 12°C/min, and a second ramp was performed to 250°C at 4°C/min and was […]. Finally, the oven was ramped to 300°C at 20°C/min and this step was held for 10 min to give a total run time of 32.83 min. […]

CYP1A2 mRNA = CYP1A2 mRNA expression in primary rat hepatocytes, quantitative RT-PCR; format: cell-based; conditions: 10 µM BDE-99, 24 h; P < 0.05; n = 3
Experimental: as §1, with “Wells treated with media containing aliquots of DMSO were set up as controls.” left out
(§2) The expression of several genes that encode potential biotransforming enzymes, such as CYP1A2, CYP2B1/2, CYP3A23/3A1, GSTM1 and GSTP1, were determined using quantitative RT-PCR, and GAPDH was used as a reference to calculate the expression levels. […] At the end of each step, the fluorescence intensity of evagreen was read on the 7900 system. […]

GSTP1 mRNA = GSTP1 mRNA expression in primary rat hepatocytes, quantitative RT-PCR; format: cell-based; conditions: 10 µM BDE-99, 24 h; n = 3
Experimental: as §1, with “Wells treated with media containing aliquots of DMSO were set up as controls.” left out
as §2

human CYP3A4 = target: T1, human CYP3A4 (Homo sapiens, UniProt P08684); test: Metabolic clearance (parent depletion) of BDE-99 by recombinant human CYP3A4; format: in vitro ADME; conditions: percentage parent BDE-99 metabolized during a 20-min incubation, 20 µM BDE-99, 37°C, mean ±SD, n = 3
T1 construct: made in house; host or cells: Sf9 insect cells (Bac-to-Bac baculovirus), microsomes
Text: (§3) All the proteins were expressed in a Bac-to-Bac baculovirus expression system (Invitrogen Corp., USA) following the manufacturer's instructions. Briefly, the CYP1A1 (NM_000499), CYP1A2 (NM_000761), CYP2A6 (NM_000762), CYP2E1 (NM_000773) and CYP3A4 (NM_017460) cDNA were first transformed to the recombinant bacmid, and subsequently transfected into the Sf9 cells to produce recombinant baculovirus particles, and further to get the baculoviral stock which was finally used to express CYPs proteins in the culture medium containing 0.1 µM ferric citrate and 0.1 µM 5-ALA. After being incubated for 72 h, the infected Sf9 cells were harvested and the microsomes were prepared by sonication using an Ultrasonic Processor (CPX130, Cole-Parmer Scientific Instruments, USA) and differential centrifugation. The protein expressed from the blank vector was used as a negative control. The prepared microsomes were stored at -80°C prior to usage.
(§4) Each human P450 was screened for its ability to oxidize and eliminate BDE-99 from the assay mixture. […]
(§5) Hepatocytes and media were extracted using methods developed for the extraction of phenolic and neutral compounds from serum. […] Rates of elimination were determined by comparing the concentration of parent compound before and after the reaction.

CYP2B1/2 mRNA = CYP2B1/2 mRNA expression in primary rat hepatocytes, quantitative RT-PCR; format: cell-based; conditions: 10 µM BDE-99, 24 h; P < 0.05; n = 3
Experimental: as §1, with “Wells treated with media containing aliquots of DMSO were set up as controls.” left out
as §2

human CYP2E1 = target: T2, human CYP2E1 (Homo sapiens, UniProt P05181); test: Metabolic clearance (parent depletion) of BDE-99 by recombinant human CYP2E1; format: in vitro ADME; conditions: 20-min incubation, 20 µM BDE-99, 37°C, N.S. = no significant difference (vs blank vector control)
T2 construct: made in house; host or cells: Sf9 insect cells (Bac-to-Bac baculovirus), microsomes
Text: as §3, §4, §5

CYP3A23/3A1 mRNA = CYP3A23/3A1 mRNA expression in primary rat hepatocytes, quantitative RT-PCR; format: cell-based; conditions: 10 µM BDE-99, 24 h; P < 0.05; n = 3
Experimental: as §1, with “Wells treated with media containing aliquots of DMSO were set up as controls.” left out
as §2

human CYP2A6 = target: T3, human CYP2A6 (Homo sapiens, UniProt P11509); test: Metabolic clearance (parent depletion) of BDE-99 by recombinant human CYP2A6; format: in vitro ADME; conditions: percentage parent BDE-99 metabolized during a 20-min incubation, 20 µM BDE-99, 37°C, mean ±SD, n = 3
T3 construct: made in house; host or cells: Sf9 insect cells (Bac-to-Bac baculovirus), microsomes
T3 sequence (P11509 1-494): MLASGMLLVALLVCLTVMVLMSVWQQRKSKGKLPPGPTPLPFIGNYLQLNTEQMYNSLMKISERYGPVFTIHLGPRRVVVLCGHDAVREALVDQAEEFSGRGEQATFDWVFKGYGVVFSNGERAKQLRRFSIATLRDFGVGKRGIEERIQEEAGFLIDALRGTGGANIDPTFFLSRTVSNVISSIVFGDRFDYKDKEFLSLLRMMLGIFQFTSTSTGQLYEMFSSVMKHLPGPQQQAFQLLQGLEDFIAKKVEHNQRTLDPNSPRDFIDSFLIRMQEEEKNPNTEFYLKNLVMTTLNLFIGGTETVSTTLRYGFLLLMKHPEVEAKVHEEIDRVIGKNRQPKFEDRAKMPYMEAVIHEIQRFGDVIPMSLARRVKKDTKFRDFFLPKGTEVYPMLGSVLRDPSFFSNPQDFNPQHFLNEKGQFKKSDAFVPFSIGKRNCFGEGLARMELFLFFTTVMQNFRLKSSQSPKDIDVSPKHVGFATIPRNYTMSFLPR
Text: as §3, §4, §5

GSTM1 mRNA = GSTM1 mRNA expression in primary rat hepatocytes, quantitative RT-PCR; format: cell-based; conditions: 10 µM BDE-99, 24 h; n = 3
Experimental: as §1, with “Wells treated with media containing aliquots of DMSO were set up as controls.” left out
as §2

human CYP1A1 = target: T4, human CYP1A1 (Homo sapiens, UniProt P04798); test: Metabolic clearance (parent depletion) of BDE-99 by recombinant human CYP1A1; format: in vitro ADME; conditions: percentage parent BDE-99 metabolized during a 20-min incubation, 20 µM BDE-99, 37°C, mean ±SD, n = 3
T4 construct: made in house; host or cells: Sf9 insect cells (Bac-to-Bac baculovirus), microsomes
T4 sequence (P04798 1-512): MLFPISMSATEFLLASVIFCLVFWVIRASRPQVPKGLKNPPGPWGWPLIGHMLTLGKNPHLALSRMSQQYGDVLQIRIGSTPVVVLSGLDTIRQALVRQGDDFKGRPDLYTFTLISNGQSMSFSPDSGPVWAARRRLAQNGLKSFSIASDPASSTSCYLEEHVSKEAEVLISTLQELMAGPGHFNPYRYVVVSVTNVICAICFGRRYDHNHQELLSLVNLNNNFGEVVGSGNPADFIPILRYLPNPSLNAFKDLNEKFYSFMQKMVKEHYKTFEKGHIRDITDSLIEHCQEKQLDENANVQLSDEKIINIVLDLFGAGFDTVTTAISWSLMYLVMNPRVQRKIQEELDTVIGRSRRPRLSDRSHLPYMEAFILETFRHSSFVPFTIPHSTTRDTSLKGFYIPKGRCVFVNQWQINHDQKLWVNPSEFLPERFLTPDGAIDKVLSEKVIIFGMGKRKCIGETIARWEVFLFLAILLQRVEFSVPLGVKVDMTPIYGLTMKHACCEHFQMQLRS
Text: as §3, §4, §5

human CYP1A2 = target: T5, human CYP1A2 (Homo sapiens, UniProt P05177); test: Metabolic clearance (parent depletion) of BDE-99 by recombinant human CYP1A2; format: in vitro ADME; conditions: percentage parent BDE-99 metabolized during a 20-min incubation, 20 µM BDE-99, 37°C, mean ±SD, n = 3
T5 construct: made in house; host or cells: Sf9 insect cells (Bac-to-Bac baculovirus), microsomes
T5 sequence (P05177 1-516): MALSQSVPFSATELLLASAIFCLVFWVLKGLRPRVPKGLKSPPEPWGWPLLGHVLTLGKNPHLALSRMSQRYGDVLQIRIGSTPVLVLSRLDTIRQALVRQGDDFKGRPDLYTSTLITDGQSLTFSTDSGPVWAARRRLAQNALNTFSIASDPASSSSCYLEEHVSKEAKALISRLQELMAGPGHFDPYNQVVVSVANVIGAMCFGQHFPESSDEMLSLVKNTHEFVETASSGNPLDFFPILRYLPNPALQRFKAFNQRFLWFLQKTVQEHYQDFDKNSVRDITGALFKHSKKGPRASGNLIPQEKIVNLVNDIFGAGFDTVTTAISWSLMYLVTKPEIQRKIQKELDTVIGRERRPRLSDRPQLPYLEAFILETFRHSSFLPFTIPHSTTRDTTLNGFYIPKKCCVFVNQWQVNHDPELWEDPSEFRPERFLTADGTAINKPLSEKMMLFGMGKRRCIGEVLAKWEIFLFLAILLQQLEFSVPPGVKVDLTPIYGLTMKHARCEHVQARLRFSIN
Text: as §3, §4, §5

[1] = hepatocytes exposed to 10 µM BDE-99

T2 sequence (P05181 whole entry): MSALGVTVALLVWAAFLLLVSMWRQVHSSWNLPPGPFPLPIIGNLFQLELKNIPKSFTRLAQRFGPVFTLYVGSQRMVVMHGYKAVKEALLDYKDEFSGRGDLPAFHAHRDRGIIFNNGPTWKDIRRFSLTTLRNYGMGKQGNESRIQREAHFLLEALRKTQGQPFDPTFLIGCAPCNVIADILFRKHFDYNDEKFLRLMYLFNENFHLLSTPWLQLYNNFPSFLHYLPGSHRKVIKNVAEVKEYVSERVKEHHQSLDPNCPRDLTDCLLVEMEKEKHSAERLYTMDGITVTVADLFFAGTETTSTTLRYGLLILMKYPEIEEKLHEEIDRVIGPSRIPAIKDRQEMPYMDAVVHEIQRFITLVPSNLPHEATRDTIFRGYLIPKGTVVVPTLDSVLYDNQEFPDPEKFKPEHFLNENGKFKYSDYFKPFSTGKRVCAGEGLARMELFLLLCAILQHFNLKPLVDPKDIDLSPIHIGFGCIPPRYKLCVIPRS
T1 sequence (P08684 whole entry): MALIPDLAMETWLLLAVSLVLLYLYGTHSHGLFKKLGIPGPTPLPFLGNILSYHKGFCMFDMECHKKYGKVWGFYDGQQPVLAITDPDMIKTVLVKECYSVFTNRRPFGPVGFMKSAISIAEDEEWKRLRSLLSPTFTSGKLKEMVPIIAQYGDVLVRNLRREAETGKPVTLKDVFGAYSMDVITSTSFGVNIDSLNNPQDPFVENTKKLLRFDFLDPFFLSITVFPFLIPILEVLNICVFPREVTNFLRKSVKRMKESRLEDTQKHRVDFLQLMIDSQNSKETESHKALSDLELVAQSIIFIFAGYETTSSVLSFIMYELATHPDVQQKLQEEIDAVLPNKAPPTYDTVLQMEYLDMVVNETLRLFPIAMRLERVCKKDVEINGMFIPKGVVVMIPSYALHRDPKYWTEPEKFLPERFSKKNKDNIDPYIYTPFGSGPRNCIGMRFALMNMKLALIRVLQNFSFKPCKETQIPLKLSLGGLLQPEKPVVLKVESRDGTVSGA

## Oc1cc(Oc2cc(Br)c(Br)cc2Br)c(Br)cc1Br [5′-OH-BDE-99]
Primary rat hepatocytes; [1]
  metabolite of BDE-99 detected by GC/MS (qualitative): identified

## Oc1cc(Br)c(Br)cc1Br [2,4,5-tribromophenol]
Primary rat hepatocytes; [1]
  metabolite of BDE-99 detected by GC/MS (qualitative): identified

## Oc1cc(Oc2ccc(Br)cc2Br)c(Br)cc1Br [5-OH-BDE-47]
Primary rat hepatocytes; [1]
  metabolite of BDE-99 detected by GC/MS (qualitative): identified

## Brc1ccc(Oc2cc(Br)c(Br)cc2Br)c(Br)c1 [BDE-99, 2,2′,4,4′,5-pentabromodiphenyl ether]
CYP1A2 mRNA
  average percentage increase of CYP1A2 mRNA expression vs control: 15%
Primary rat hepatocytes; after 24-h incubation, initial 10.21±0.50 nmol/well
  BDE-99 mass unrecovered: about 13.5%
Primary rat hepatocytes; [1]
  metabolite of BDE-99 detected by GC/MS (qualitative): no MeO metabolite was determined
GSTP1 mRNA
  GSTP1 mRNA expression, treated cells vs control cells: no differences
Human CYP3A4
  Clearance rate of BDE-99 (%): 27.7% and 27.7±5.1%
CYP2B1/2 mRNA
  average percentage increase of CYP2B1/2 mRNA expression vs control: 22%
Human CYP2E1
  Clearance rate of BDE-99 (%): seemed not to be associated with the BDE-99 metabolism; also recorded: did not contribute to any metabolism of BDE-99; also recorded: N.S. ^b
CYP3A23/3A1 mRNA
  average percentage increase of CYP3A23/3A1 mRNA expression vs control: 124%
Human CYP2A6
  Clearance rate of BDE-99 (%): 11.6% and 11.6±2.3%
GSTM1 mRNA
  GSTM1 mRNA expression, treated cells vs control cells: no differences
Human CYP1A1
  Clearance rate of BDE-99 (%): 14.5%
Human CYP1A2
  Clearance rate of BDE-99 (%): 30.3% and 30.3±6.5%

## Brc1ccc(Oc2ccc(Br)cc2Br)c(Br)c1 [BDE-47]
Primary rat hepatocytes; [1]
  metabolite of BDE-99 detected by GC/MS (qualitative): found in all hepatocytes exposed to BDE-99
Primary rat hepatocytes; hepatocytes exposed to 10 µM BDE-99, neutral extracts, GC/MS
  average concentration of metabolite BDE-47 formed from BDE-99: 215.9±35.8 pmol/well
